# Laboratory results: the supplement of paper PMC10307832
# Legend:
# Assay in all cases: relative viability (nuclei count vs DMSO), 5 days (fraction); higher = more cells survive
# [1] = compound: C1COCCN1C2=NC(=NC3=C2OC4=C3C=CC=N4)C5=CC(=CC=C5)NC(=O)C6=CN=C(C=C6)N + CS(=O)(=O)CCNCc1ccc(-c2ccc3ncnc(Nc4ccc(OCc5cccc(F)c5)c(Cl)c4)c3c2)o1 [Lapatinib] (partner 2 µM)
# Procedure, shortened: (§1)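 Five library-drug doses in √10 steps were combined with a fixed anchor-drug dose, or a single drug was given alone, by pin tool to lung cancer cell lines in 1536-well plates the day after seeding. Nuclei were stained and counted after 5 days. Relative viability is the nuclei count in treated wells over that in vehicle wells, taken as the median of duplicate plates.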
# [2] = compound: Nc1ccccc1NC(=O)c1ccc(CNC(=O)OCc2cccnc2)cc1 [Entinostat] + COc1cccc2cc(-c3nc([C@H]4CC[C@H](C(=O)O)CC4)n4ncnc(N)c34)[nH]c12 [OSI-027] (partner 0.5 µM)
# Procedure, shortened: as §1
# [3] = compound: CN1CCC(CNc2ccc3ncc(-c4cccc(OC(F)(F)F)c4)n3n2)CC1 [SGI-1776] + CC1(C)CCC(c2ccc(Cl)cc2)=C(CN2CCN(c3ccc(C(=O)NS(=O)(=O)c4ccc(N[C@H](CCN5CCOCC5)CSc5ccccc5)c(S(=O)(=O)C(F)(F)F)c4)cc3)CC2)C1 [Navitoclax] (partner 0.5 µM)
# Procedure, shortened: as §1
# [4] = compound: C1COCCN1C2=NC(=NC3=C2OC4=C3C=CC=N4)C5=CC(=CC=C5)NC(=O)C6=CN=C(C=C6)N + CCNC(=O)c1noc(-c2cc(C(C)C)c(O)cc2O)c1-c1ccc(CN2CCOCC2)cc1 [Luminespib] (partner 0.01 µM)
# Procedure, shortened: as §1
Cell Line,relative viability ([1]; first compound 0.02 µM),relative viability ([1]; first compound 0.06325 µM),relative viability ([1]; first compound 0.2 µM),relative viability ([1]; first compound 0.6325 µM),relative viability ([1]; first compound 2 µM),relative viability ([2]; first compound 0.02 µM),relative viability ([2]; first compound 0.06325 µM),relative viability ([2]; first compound 0.2 µM),relative viability ([2]; first compound 0.6325 µM),relative viability ([2]; first compound 2 µM),relative viability ([3]; first compound 0.08 µM),relative viability ([3]; first compound 0.8 µM),relative viability ([3]; first compound 2.53 µM),relative viability ([3]; first compound 8 µM),relative viability ([4]; first compound 0.02 µM),relative viability ([4]; first compound 0.06325 µM),relative viability ([4]; first compound 0.2 µM),relative viability ([4]; first compound 0.6325 µM),relative viability ([4]; first compound 2 µM)
RERF-LC-KJ,0.976,0.922,0.844,0.769,0.65,0.582,0.591,0.6,0.326,0.264,0.936,1.04,0.937,0.789,1.22,1.3,1.02,1.38,0.633
NCI-H1915,0.955,1.04,1.03,1.01,0.443,0.594,0.605,0.58,0.283,0.222,0.795,0.802,0.793,0.781,0.95,0.85,0.829,0.432,0.267
NCI-H647,1.11,1.22,0.965,0.868,0.275,0.677,0.537,0.562,0.302,0.179,1.1,0.993,1.18,0.715,0.31,0.193,0.189,0.125,0.127
SK-LU-1,1.02,1.01,0.786,0.824,0.33,0.357,0.448,0.35,0.261,0.231,1.27,1.35,1.01,0.468,0.202,0.206,0.218,0.214,0.181
NCI-H441,,,,,,0.592,0.562,0.592,0.308,0.233,0.775,0.732,0.629,0.374,0.284,0.314,0.324,0.501,0.25
COR-L 105,0.391,0.318,0.34,0.346,0.289,0.735,0.875,0.977,0.688,0.297,0.799,0.86,1,0.546,0.975,0.682,0.677,0.674,0.472
NCI-H2009,0.933,0.944,0.889,0.89,0.792,0.59,0.691,0.628,0.636,0.451,1.15,1.18,1.19,1.08,1.07,1.07,0.999,1.01,0.725
NCI-H1563,0.906,0.82,0.857,0.72,0.719,0.723,0.687,0.707,0.653,0.547,,,,,0.492,0.516,0.542,0.474,0.48
PC-14,0.308,0.391,0.307,0.283,0.249,0.814,0.829,0.779,0.235,0.0869,0.97,1.05,1.04,0.93,0.184,0.189,0.13,0.151,0.148
NCI-H1703,1.17,1.21,0.761,0.798,0.308,,,,,,1.22,0.914,0.457,0.178,,,,,
NCI-H1944,0.802,0.864,0.753,0.876,0.859,0.382,0.404,0.362,0.233,0.208,1.03,1.09,1.07,1.07,0.728,0.786,0.665,0.555,0.553
EBC-1,0.178,0.212,0.216,0.17,0.268,,,,,,0.458,0.292,0.289,0.144,,,,,
ABC-1,1.38,1.14,1.07,1.21,0.871,0.446,0.524,0.544,0.351,0.247,,,,,0.383,1.28,0.473,0.739,0.475
HCC-366,1.35,1.04,0.95,1.03,0.453,0.922,0.972,0.854,0.214,0.0783,1.06,0.964,1.2,1.09,,,,,
NCI-H1648,,,,,,0.247,0.27,0.257,0.271,0.296,,,,,,,,,
A549,1.07,0.925,0.911,0.921,0.468,,,,,,1.24,1.29,1.27,0.77,,,,,
NCI-H1299,0.929,0.953,0.954,0.975,0.691,,,,,,1.04,1.06,0.964,1.04,,,,,
NCI-H1623,,,,,,0.445,0.565,0.429,0.298,0.339,,,,,0.486,0.503,0.461,0.439,0.835
HCC-78,0.671,0.792,0.767,0.762,0.72,0.402,0.33,0.351,0.344,0.261,0.816,0.766,0.812,0.66,,,,,
NCI-H522,,,,,,0.84,0.764,0.85,0.688,0.555,,,,,0.993,1.23,1.13,0.986,0.719
Calu-6,1.3,1.1,1.12,0.98,0.742,,,,,,0.922,0.909,0.856,0.626,,,,,
ChaGo-K-1,,,,,,0.606,0.513,0.56,0.436,0.378,0.849,1.23,0.624,0.716,0.635,0.582,0.513,0.526,0.518
